{
  "source": "patent US6416735B1",
  "about": "(priority 1999, dated 2002)",
  "key": {"α7 nAChR": {"target": "α7 nAChR (Rattus norvegicus, UniProt Q05941)", "sequence (Q05941 23-502)": "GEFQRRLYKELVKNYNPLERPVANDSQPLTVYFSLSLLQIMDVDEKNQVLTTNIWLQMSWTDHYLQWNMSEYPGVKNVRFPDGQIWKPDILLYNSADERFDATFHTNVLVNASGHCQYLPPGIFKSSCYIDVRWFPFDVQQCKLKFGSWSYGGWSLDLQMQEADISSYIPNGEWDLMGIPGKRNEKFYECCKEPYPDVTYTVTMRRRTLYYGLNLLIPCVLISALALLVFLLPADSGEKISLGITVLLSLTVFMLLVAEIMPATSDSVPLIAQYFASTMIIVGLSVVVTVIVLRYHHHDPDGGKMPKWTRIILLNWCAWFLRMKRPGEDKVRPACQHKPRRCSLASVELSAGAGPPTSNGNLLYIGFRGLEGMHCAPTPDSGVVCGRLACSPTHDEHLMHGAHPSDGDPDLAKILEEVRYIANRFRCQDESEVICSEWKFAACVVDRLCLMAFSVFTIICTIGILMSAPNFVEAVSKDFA", "assay": "biochemical", "type": "binding"}, "[1]": {"settings": "in vivo; cited from earlier work"}, "α4β2 nAChRs": {"target": "α4β2 nAChRs (Rattus norvegicus, UniProt P09483+P12390)", "sequence (P12390 25-500)": "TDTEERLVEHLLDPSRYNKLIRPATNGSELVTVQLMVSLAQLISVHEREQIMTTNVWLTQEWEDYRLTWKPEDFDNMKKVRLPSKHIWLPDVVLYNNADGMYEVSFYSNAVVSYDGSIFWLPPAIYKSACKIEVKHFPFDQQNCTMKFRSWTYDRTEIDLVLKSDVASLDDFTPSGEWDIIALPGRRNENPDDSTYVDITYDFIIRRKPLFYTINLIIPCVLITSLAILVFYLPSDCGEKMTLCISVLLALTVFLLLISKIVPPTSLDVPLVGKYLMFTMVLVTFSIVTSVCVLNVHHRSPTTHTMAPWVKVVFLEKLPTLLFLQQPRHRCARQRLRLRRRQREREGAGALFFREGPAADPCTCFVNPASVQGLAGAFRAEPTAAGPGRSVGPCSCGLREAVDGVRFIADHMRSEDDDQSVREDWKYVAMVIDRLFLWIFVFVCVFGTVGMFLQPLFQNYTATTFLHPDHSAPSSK", "sequence (P09483 31-630)": "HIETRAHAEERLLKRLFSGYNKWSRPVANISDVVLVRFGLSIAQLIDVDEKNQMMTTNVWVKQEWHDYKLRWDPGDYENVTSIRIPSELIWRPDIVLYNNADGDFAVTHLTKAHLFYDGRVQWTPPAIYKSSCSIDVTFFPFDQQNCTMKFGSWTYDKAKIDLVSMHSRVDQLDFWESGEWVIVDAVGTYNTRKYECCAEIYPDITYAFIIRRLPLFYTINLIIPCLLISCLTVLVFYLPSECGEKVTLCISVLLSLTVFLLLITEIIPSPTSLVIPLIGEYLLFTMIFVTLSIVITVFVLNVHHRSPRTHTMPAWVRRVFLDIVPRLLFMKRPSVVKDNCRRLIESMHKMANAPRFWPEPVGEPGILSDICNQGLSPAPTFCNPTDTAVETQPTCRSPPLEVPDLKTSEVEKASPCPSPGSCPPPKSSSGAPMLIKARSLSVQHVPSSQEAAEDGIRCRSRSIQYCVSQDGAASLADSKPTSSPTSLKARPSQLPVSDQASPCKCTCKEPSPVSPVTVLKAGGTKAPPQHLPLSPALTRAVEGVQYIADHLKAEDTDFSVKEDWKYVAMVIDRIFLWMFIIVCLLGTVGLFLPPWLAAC", "assay": "biochemical", "type": "binding"}, "[2]": {"settings": "read-out: KI, inhibition of [^125I]Iodo-MLA binding"}},
  "note": "Counter-ions that a name gives are not always drawn. Like-named read-outs stand apart in the source and are kept apart here.",
  "data": [
    {"compound": "CCN1CC2(COC(=O)c3cc(I)ccc3N3C(=O)CC(C)C3=O)CCC(OC)C34C5CC6C(OC)CC(O)(C5C6OC)C(O)(C(OC)C23)C14", "note": "(stereo not shown) (as salt: citrate) [iodo-MLA, Iodo-methyllycaconitine]", "values": [
      {"measurement": "melting point", "value": "115 to 116", "unit": "°C"}
    ]},
    {"compound": "CN1CCCC1c1cccnc1", "note": "(single isomer, unassigned; (-)) [(-)-Nicotine]", "values": [
      {"measurement": "displacing [^125I]iodo-MLA (in words)", "setting": "α7 nAChR", "value": "weak or ineffective"}
    ]},
    {"compound": "C(=Cc1ccccc1)C=C1CCCN=C1c1cccnc1", "note": "[3-Cinnamylidene-anabasine]", "values": [
      {"measurement": "Ki", "setting": "α7 nAChR; [2]", "value": "15.3 ± 2", "unit": "nM"}
    ]},
    {"compound": "CO[C@H]1CC=C2CCN3CCC4=C(CC(=O)OC4)[C@]23C1", "note": "[Dihydro-β-erythroidine]", "values": [
      {"measurement": "displacing [^125I]iodo-MLA (in words)", "setting": "α7 nAChR", "value": "weak or ineffective"},
      {"measurement": "Ki", "setting": "α7 nAChR; [2]", "value": "> 10000", "unit": "nM"}
    ]},
    {"compound": "CCN1C[C@]2(COC(=O)c3ccccc3N3C(=O)C[C@H](C)C3=O)CC[C@H](OC)[C@@]34[C@@H]5C[C@H]6[C@H](OC)[C@@H]5[C@](O)(C[C@@H]6OC)[C@@](O)([C@@H](OC)[C@H]23)[C@@H]14", "note": "[MLA, Methyllycaconitine]", "values": [
      {"measurement": "crossing of the blood-brain barrier", "setting": "[1]", "value": "crosses the blood-brain barrier"}
    ]},
    {"compound": "CNC1(C)C2CCC(C2)C1(C)C", "note": "(stereo not shown) [Mecamylamine]", "values": [
      {"measurement": "Ki", "setting": "α7 nAChR", "value": "> 10000", "unit": "nM"},
      {"measurement": "displacing [^125I]iodo-MLA (in words)", "setting": "α7 nAChR", "value": "weak or ineffective"}
    ]},
    {"compound": "CCN1CC2(COC(=O)c3cc(I)ccc3N3C(=O)CC(C)C3=O)CCC(OC)C34C5CC6C(OC)CC(O)(C5C6OC)C(O)(C(OC)C23)C14", "note": "(stereo not shown) [iodo-MLA, Iodo-methyllycaconitine]", "values": [
      {"measurement": "Ki", "setting": "α4β2 nAChRs", "value": "> 1000", "unit": "nM"},
      {"measurement": "affinity at α4β2 nAChRs (in words)", "setting": "α4β2 nAChRs", "value": "poor affinity"}
    ]},
    {"compound": "α-Bungarotoxin", "values": [
      {"measurement": "Ki for displacing [^125I]iodo-MLA (in words)", "setting": "α7 nAChR", "value": "low nanomolar range"},
      {"measurement": "Ki", "setting": "α7 nAChR; [2]", "value": "2 ± 0.1", "unit": "nM"},
      {"measurement": "crossing of the blood-brain barrier", "setting": "[1]", "value": "does not cross the blood-brain barrier"}
    ]}
  ]
}
